Test results as given in patent US20080025986A1, “Methods of Treating Tnf-Mediated Disorders” (priority 2003, published 2008).

Key:
Format in all cases: cell-based
p38 MAPK = assay: Western blot, TNF-induced p38 MAPK activation in cells; conditions: TNF cascade, P<0.01
Protocol: (§1) To explore the possibility that Pirfenidone could be used to treat NASH, the effects of pirfenidone on cells stimulated with Insulin in the presence or absence of TNF-α were examined.
(§2) When cells were treated with Pirfenidone, TNF-α mediated Insulin resistance was ameliorated. […] More specifically, Pirfenidone decreased ERK activation by 7-fold, p38 MAPK by 2-fold and RAF activation by 2-fold (P<0.01 for all observations). In addition, Pirfenidone decreased the TNF-α mediated phosphorylation of the transcription activation factor CREB by 2-fold (P<0.01). […] In addition, Pirfenidone increased insulin-induced phosphorylation of IRS1. […] The results are depicted in FIGS. 3 and 4. FIG. 3 depicts inhibition of MAPK by pirfenidone. FIG. 4 depicts enhancement of insulin signaling by pirfenidone.
(§3) FIG. 5 depicts various downstream signaling events that are triggered by TNF binding to a TNF receptor. TNF-mediated activation of various serine-threonine kinases are differentially affected by pirfenidone. Therefore, activation of transcription factors downstream of a given kinase will be differentially affected by pirfenidone. FIG. 6 depicts pirfenidone inhibition of TNF-induced ERK activation. FIG. 7 depicts pirfenidone inhibition of TNF-induced p38 MAPK activation. FIG. 8 depicts pirfenidone inhibition of TNF-induced activation of the transcription factor CREB. […]

AKT = assay: TNF-induced activation of AKT; conditions: FIG. 10
Description: (§4) FIG. 5 depicts various downstream signaling events that are triggered by TNF binding to a TNF receptor. TNF-mediated activation of various serine-threonine kinases are differentially affected by pirfenidone. Therefore, activation of transcription factors downstream of a given kinase will be differentially affected by pirfenidone. FIG. 6 depicts pirfenidone inhibition of TNF-induced ERK activation. FIG. 7 depicts pirfenidone inhibition of TNF-induced p38 MAPK activation. FIG. 8 depicts pirfenidone inhibition of TNF-induced activation of the transcription factor CREB. FIG. 9 depicts pirfenidone inhibition of TNF-induced activation of RAF kinase. FIG. 10 depicts pirfenidone inhibition of TNF-induced activation of AKT. FIG. 11 depicts pirfenidone potentiation of TNF-induced JNK activation.

IRS1 = assay: Insulin signaling in cells stimulated with insulin in the presence or absence of TNF-α
Protocol: as §1, §2

CREB = assay: TNF-α mediated phosphorylation/activation of transcription factor CREB
Protocol: as §1, §2, §3

AP-1 = AP-1 activation
ERK = assay: Western blot, TNF-induced ERK activation in cells; conditions: TNF cascade, P<0.01
Protocol: as §1, §2, §3

JNK = assay: TNF-induced JNK activation; conditions: FIG. 11
Description: as §4
(§5) While phosphorylation of CREB is diminished due to decreased activity of p38 in the presence of pirfenidone, phosphorylation of the JNK-phosphorylated transcription factor ATF2 is potentiated in the presence of pirfenidone. FIG. 12 depicts pirfenidone potentiation of ATF2. Thus, pirfenidone potentiates TNF-induced activation of the JNK kinase pathway.

RAF = assay: Western blot, TNF-induced RAF kinase activation in cells; conditions: TNF cascade, P<0.01
Protocol: as §1, §2, §3

ATF2 = assay: Phosphorylation of JNK-phosphorylated transcription factor ATF2; conditions: FIG. 12
Description: as §5

Cc1ccc(=O)n(-c2ccccc2)c1 [Pirfenidone, 5-methyl-1-phenyl-2-(1H)-pyridone]
decrease of p38 MAPK activation (p38 MAPK): 2 fold | effect on TNF-induced activation of AKT (AKT): inhibition | effect on TNF-α mediated insulin resistance (IRS1; cells treated with TNF-α): ameliorated | effect on TNF-α-mediated inhibition of insulin-induced IRS1 tyrosine phosphorylation (IRS1; insulin plus TNF-α): blocks | effect on insulin-induced phosphorylation of IRS1 (IRS1; insulin stimulation): increased | decrease of TNF-α mediated phosphorylation of CREB (CREB; P<0.01): 2 fold | upper limit of inhibition of CREB activation (CREB; at maximal pirfenidone concentrations): ≤ 75% | effect on AP-1 activation (AP-1): potentiates | decrease of ERK activation (ERK): 7 fold | effect on TNF-induced JNK activation (JNK): potentiation | decrease of RAF activation (RAF): 2 fold | effect on phosphorylation of ATF2 (ATF2): potentiated
